Test results reported in US6750244B2, “Compounds active at a novel site on receptor-operated calcium channels useful for treatment of neurological disorders and diseases” (NPS Pharmaceuticals, Inc., priority 1993, dated 2004).
Read-outs that look alike come from different tables or passages of the source.

Legend:
[1] = tested on: sound-induced seizures; experiment: Sound-induced seizures in Frings mice (reflex epilepsy); format: in vivo; conditions: Mus musculus, Frings mice
[2] = tested on: mean arterial blood pressure; conditions: i.v.
[3] = tested on: motor performance; experiment: Acute motor impairment (rotorod) in mice; conditions: Frings mice, i.p.
Method: (§1) In this assay, Frings and CF1 mice were injected with test compound and placed on a knurled rod which rotated at a speed of 6 rpm. The ability of the mice to maintain equilibrium for long periods of time was determined; those mice that were unable to maintain equilibrium on the rotorod for 1 min in each of 3 trials were considered impaired.

[4] = target: NMDA receptor-ionophore complex (site labeled by [3H]MK-801); experiment: Inhibition of [3H]MK-801 binding in rat cortical/hippocampal washed membrane preparations; conditions: read-out: IC50 (μM) vs. [3H]MK-801; rat cortical/hippocampal washed membranes
[5] = tested on: NMDA receptor; experiment: Inhibition of NMDA/glycine-induced increases in intracellular calcium in cultured rat cerebellar granule cells (RCGC); format: cell-based; conditions: NMDA/glycine-induced increases in intracellular calcium, cultured rat cerebellar granule cells; read-out: IC50 (μM) vs. NMDA
[6] = Lethality (LD50) after oral administration in Frings mice; conditions: mouse, in vivo
[7] = tested on: motor performance; experiment: Motor toxicity (TD50) in rats; conditions: rats, oral, 25 mg/kg
[8] = target: T1, dopamine uptake site (Cavia porcellus, UniProt H0WCX4); experiment: Dopamine uptake binding assay: [3H]WIN-35,428 binding to guinea pig striatal membranes
T1 construct: from tissue; host or cells: guinea pig striatal membranes (per the assay title)

[9] = target: T2, norepinephrine uptake site (Rattus norvegicus, UniProt Q63380); experiment: Norepinephrine uptake binding assay: [3H]desipramine binding to rat cortical membranes
T2 construct: from tissue; host or cells: rat cortical membranes (per the assay title)

[10] = tested on: T3, L-type calcium channel; experiment: Inhibition of KCl depolarization-induced increases in intracellular calcium in cultured rat cerebellar granule cells; format: cell-based; conditions: cultured rat cerebellar granule cells; read-out: L-type calcium channel: estimated IC50, KCl depolarization-induced increases in intracellular calcium
T3 construct: L-type calcium channel: estimated IC50, KCl depolarization-induced increases in intracellular calcium; other: cultured
From the text: The ability of arylalkylamines to inhibit dihydropyridine-sensitive Ca^2+ channels was examined in cerebellar granule cells and a rat aortic smooth muscle cell line, A7r5 cells.

[11] = tested on: behavior; experiment: Behavioral effects in conscious male NMRI mice
[12] = target: T4, serotonin uptake site (Rattus norvegicus, UniProt P31652); experiment: Serotonin uptake binding assay: [3H]citalopram binding to rat forebrain membranes
T4 construct: from tissue; host or cells: rat forebrain membranes (per the assay title)

[13] = tested on: maximal electroshock-induced seizures; experiment: Maximal electroshock-induced seizures in rats; format: in vivo; conditions: rats, oral, 25 mg/kg
[14] = tested on: chronic neuropathic pain; experiment: Rat model of chronic neuropathic pain; format: in vivo, rats
[15] = tested on: delayed rectifier potassium channel; experiment: Inhibition of delayed rectifier potassium channel in cultured N1E-115 neuroblastoma cells; format: cell-based; conditions: read-out: Delayed rectifier potassium channel: estimated IC50
[16] = in vivo; conditions: Frings, mouse, in vivo, ip
Method: as §1

[17] = tested on: central muscarinic cholinergic receptor; format: binding, rat
[18] = tested on: thermal nociception; format: in vivo, rats; conditions: 25 mg/kg i.p.
Method: In these experiments, a 52° C. hot plate was used as the nociceptive stimulus.

[19] = tested on: behavior; experiment: Behavioral effects in conscious beagle dogs
[20] = tested on: mean arterial pressure, heart rate, ECG; experiment: Cardiovascular activity in conscious beagle dogs
[21] = tested on: thermal nociception; format: in vivo, rats; conditions: 25 mg/kg i.p.; remark: listed apart in the source
Method: In this standard assay, the thermal nociceptive stimulus was 52° C. warm water with the latency to tail flick or withdrawal taken as the endpoint.

[22] = tested on: focal ischemic stroke; experiment: Rat model of focal ischemic stroke (vessel occlusion); format: in vivo, rats; conditions: i.p. 2 mg/kg 30 min prior to vessel occlusion and 2 mg/kg 3 hr post-occlusion
[23] = tested on: neuronal vacuolization; conditions: i.p.
[24] = 3 mg/kg i.v. (60 sec bolus injection)
[25] = 10 mg/kg i.v. (60 sec bolus injection)

T4 sequence (P31652 whole entry): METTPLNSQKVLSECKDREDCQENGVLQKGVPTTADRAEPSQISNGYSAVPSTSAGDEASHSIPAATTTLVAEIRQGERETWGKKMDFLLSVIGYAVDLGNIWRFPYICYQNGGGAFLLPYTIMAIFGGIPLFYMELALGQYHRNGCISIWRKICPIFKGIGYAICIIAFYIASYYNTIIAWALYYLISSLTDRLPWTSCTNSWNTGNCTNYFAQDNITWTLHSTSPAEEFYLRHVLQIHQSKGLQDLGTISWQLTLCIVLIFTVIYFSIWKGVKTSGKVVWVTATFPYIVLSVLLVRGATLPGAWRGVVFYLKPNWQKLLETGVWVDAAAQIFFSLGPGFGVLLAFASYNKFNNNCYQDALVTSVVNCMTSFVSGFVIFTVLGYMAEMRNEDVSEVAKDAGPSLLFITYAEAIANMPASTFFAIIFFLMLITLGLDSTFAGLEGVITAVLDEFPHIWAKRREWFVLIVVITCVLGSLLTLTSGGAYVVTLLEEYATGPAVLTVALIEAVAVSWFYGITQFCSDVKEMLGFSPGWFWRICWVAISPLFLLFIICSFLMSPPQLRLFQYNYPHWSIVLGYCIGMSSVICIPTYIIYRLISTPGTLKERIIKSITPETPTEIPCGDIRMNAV
T2 sequence (Q63380 1-617): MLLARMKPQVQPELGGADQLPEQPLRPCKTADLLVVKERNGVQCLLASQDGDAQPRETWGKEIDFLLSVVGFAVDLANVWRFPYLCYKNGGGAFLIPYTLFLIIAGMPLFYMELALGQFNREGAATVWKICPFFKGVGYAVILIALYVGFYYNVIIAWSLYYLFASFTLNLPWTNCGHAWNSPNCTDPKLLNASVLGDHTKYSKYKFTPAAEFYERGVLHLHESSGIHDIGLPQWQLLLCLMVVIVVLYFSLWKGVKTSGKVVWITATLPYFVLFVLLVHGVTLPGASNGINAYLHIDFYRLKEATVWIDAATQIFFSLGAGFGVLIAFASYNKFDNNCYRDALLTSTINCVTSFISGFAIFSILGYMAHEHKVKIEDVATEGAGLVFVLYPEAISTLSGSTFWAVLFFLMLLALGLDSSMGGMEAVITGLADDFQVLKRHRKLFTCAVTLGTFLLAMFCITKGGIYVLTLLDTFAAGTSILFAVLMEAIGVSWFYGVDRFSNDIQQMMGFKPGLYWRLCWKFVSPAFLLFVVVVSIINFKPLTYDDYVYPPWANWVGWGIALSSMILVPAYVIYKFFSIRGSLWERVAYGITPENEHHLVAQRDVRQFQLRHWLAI
T1 sequence (H0WCX4 1-619): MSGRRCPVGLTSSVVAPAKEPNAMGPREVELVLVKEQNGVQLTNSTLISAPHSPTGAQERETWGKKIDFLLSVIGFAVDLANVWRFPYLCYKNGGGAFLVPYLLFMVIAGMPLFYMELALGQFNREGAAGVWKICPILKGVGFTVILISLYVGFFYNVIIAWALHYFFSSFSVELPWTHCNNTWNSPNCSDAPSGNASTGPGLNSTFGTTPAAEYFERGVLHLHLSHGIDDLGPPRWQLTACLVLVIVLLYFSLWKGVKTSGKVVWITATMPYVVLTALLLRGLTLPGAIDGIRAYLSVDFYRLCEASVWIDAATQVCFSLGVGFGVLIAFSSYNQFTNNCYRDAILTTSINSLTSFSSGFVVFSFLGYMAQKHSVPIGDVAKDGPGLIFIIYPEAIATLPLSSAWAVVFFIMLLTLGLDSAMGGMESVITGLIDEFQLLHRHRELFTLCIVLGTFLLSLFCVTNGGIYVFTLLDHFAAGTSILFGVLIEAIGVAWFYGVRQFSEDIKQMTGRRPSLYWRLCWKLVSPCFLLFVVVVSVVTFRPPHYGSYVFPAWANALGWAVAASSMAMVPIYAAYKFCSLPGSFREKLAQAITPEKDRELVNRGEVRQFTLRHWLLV

Question: Which ED50 ([1]; ip) does the source give for CC(N)CC(c1cccc(F)c1)c1cccc(F)c1 (stereo not shown) [Compound 22, 3,3-bis(3-fluorophenyl)-1-methyl-1-propylamine] here?
Answer: 4.9 mg/kg

Question: What about the ED50 ([1]; oral) of the same compound?
Answer: 5.1 mg/kg

Question: What about the “no significant cardiovascular activity in anesthetized rats at doses up to” value [2] of the same compound?
Answer: ≤ 4.47 mg/kg

Question: What about the “TD50 (inverted grid)” value [3] of the same compound?
Answer: 26.8 mg/kg

Question: And the IC50 [4]?
Answer: 3.45 µM

Question: And the IC50 [5]?
Answer: 0.145 µM

Question: What about the LD50 [6] of the same compound?
Answer: 18.3 mg/kg

Question: Which motor toxicity [7] does the source give for C[C@@H](CN)C(c1cccc(F)c1)c1cccc(F)c1 [Compound 33, 3,3-bis(3-fluorophenyl)-2-methyl-1-propylamine] here?
Answer: no motor toxicity apparent

Question: And the “Monoamine uptake binding assays: dopamine uptake binding assay, percent block” value ([8]; at 0.1 μM)?
Answer: 23% at

Question: And the “Monoamine uptake binding assays: dopamine uptake binding assay, percent block” value ([8]; at 10 μM)?
Answer: 0.1^f86% at

Question: And the “Monoamine uptake binding assays: norepinephrine uptake binding assay, percent block” value ([9]; at 0.1 μM)?
Answer: 10^f2% at

Question: What about the “Monoamine uptake binding assays: norepinephrine uptake binding assay, percent block” value ([9]; at 10 μM) of the same compound?
Answer: 0.1^g54% at

Question: And the IC50 [10]?
Answer: 1600 nM

Question: And the ED50 ([1]; ip)?
Answer: 4.6 mg/kg

Question: What about the behavioral effects ([11]; 8 mg/kg i.p.) of the same compound?
Answer: excitation, increased reactivity to touch, and hypothermia

Question: What about the behavioral effects ([11]; 64 mg/kg i.p.) of the same compound?
Answer: convulsions

Question: What about the behavioral effects ([11]; 2 and 4 mg/kg i.p.) of the same compound?
Answer: no behavioral effects

Question: What about the behavioral effects ([11]; 16 and 32 mg/kg i.p.) of the same compound?
Answer: excitation, Straub tail, tremor, jumping, stereotypies, hypothermia, and mydriasis

Question: What about the behavioral effects ([11]; 128 and 256 mg/kg i.p.) of the same compound?
Answer: convulsions and death

Question: And the “Monoamine uptake binding assays: serotonin uptake binding assay, percent block” value ([12]; at 0.1 μM)?
Answer: 10^g14% at

Question: What about the “Monoamine uptake binding assays: serotonin uptake binding assay, percent block” value ([12]; at 10 μM) of the same compound?
Answer: 0.1^h89% at

Question: And the “no significant cardiovascular activity in anesthetized rats at doses up to” value [2]?
Answer: up to 3 mg/kg

Question: And the “anticonvulsant activity against maximal electroshock-induced seizures” value [13]?
Answer: significant anticonvulsant activity

Question: And the “analgesic activity, chronic neuropathic pain” value ([14]; i.p., doses of 3-10 mg/kg)?
Answer: significant analgesic activity

Question: And the “analgesic activity, chronic neuropathic pain” value ([14]; i.th., doses ranging from 15 to 80 μg)?
Answer: significant analgesic activity

Question: And the IC50 [15]?
Answer: > 10000 nM

Question: What about the TD50 [16] of the same compound?
Answer: 27.8 mg/kg

Question: And the “Central muscarinic cholinergic receptor: percent block of [3H]QNB binding” value ([17]; at 0.1 μM)?
Answer: 42% at

Question: And the “Central muscarinic cholinergic receptor: percent block of [3H]QNB binding” value ([17]; at 10 μM)?
Answer: 0.199% at

Question: What about the “analgesic activity, rat 52° C. hot plate test” value [18] of the same compound?
Answer: no significant analgesic activity

Question: What about the behavioral effects [19, 24] of the same compound?
Answer: licking of the mouth

Question: And the behavioral effects [19, 25]?
Answer: dilated pupils, whole body tremors, incoordination, licking of the mouth, salivation, and panting

Question: And the cardiovascular activity ([20]; 0.3 mg/kg i.v. (60 sec bolus injection))?
Answer: no significant cardiovascular activity

Question: And the mean arterial pressure ([20]; 1 mg/kg i.v. (60 sec bolus injection))?
Answer: transient increases in mean arterial pressure

Question: And the mean arterial pressure [20, 24]?
Answer: larger magnitude and longer duration effects

Question: And the heart rate [20, 25]?
Answer: a transient increase in heart rate

Question: What about the mean arterial pressure [20, 25] of the same compound?
Answer: larger magnitude and longer duration effects

Question: And the “changes in the ECG” value ([20]; doses up to 10 mg/kg i.v. (60 sec bolus injection))?
Answer: no significant drug-induced changes in the ECG

Question: What about the IC50 [4] of the same compound?
Answer: 0.181 µM

Question: What about the “analgesic activity, rat 48° C. tail flick test” value [21] of the same compound?
Answer: no significant analgesic activity

Question: What about the IC50 [5] of the same compound?
Answer: 0.06 µM

Question: What about the “neuroprotectant activity in a rat model of focal ischemic stroke” value [22] of the same compound?
Answer: significant neuroprotectant activity

Question: And the “dose without neuronal vacuolization” value [23]?
Answer: 30 mg/kg
